Experimental data published in patent US10538520B2, “Benzamide and nicotinamide compounds and methods of using same” (OncoTartis Inc., priority 2013, dated 2020).
pIC50: −log10 of the molar value.

What was measured:
[1] = test system: U-937; assay: Cytotoxicity towards U-937 cell line; type: cell-based; conditions: Homo sapiens
Procedure: (§1) In various embodiments, the compounds of the disclosure are those in which show IC50 values in cytotoxicity experiments towards cells lines MV4-11 and U937 of >20 μM, 10-20 μM, 5-10 μM, 1-5 μM, or <1 μM.
(§2) The IC50 is divided into 5 categories: A<1 μM, B 1-5 μM, C 5-10 μM, D 10-20 μM, and E>20 μM.

[2] = test system: MV4-11; assay: Cytotoxicity towards MV4-11 cell line; type: cell-based; conditions: Homo sapiens
Procedure: as §1, §2

| Compound | pIC50 [1] | pIC50 [2] |
| --- | --- | --- |
| O=C(NCCCn1ccnc1)c1ccc(-n2cccn2)c(C#Cc2ccccc2C(F)(F)F)c1 [TT-02751] | > 6.00 | > 6.00 |
| C#Cc1cc(C(=O)NCCCn2ccnc2)ccc1-n1cccn1 [TT-02752] | 4.70 to 5.00 | 5.00 to 5.30 |
| O=C(NCCCn1ccnc1)c1cc(C#Cc2ccccc2)c2nccn2c1 [TT-02760] | 4.70 to 5.00 | 4.70 to 5.00 |
| Cn1ccnc1C(C)(O)CC1CCCN1C(=O)c1ccc(-n2cccn2)c(C#Cc2ccccc2)c1 (stereo not shown) [TT-02793] | 5.00 to 5.30 | < 4.70 |
| O=C(c1ccc(-n2cccn2)c(C#Cc2ccccc2)c1)N1CCCC(Cn2ccnc2)C1 (stereo not shown) [TT-02796] | 4.70 to 5.00 | 4.70 to 5.00 |
| Cc1nccn1CCN(C)C(=O)c1ccc(-n2cccn2)c(C#Cc2ccccc2)c1 [TT-02797] | < 4.70 | < 4.70 |
| Cc1nonc1CN(C)C(=O)c1ccc(-n2cccn2)c(C#Cc2ccccc2)c1 [TT-02800] | 5.30 to 6.00 | 4.70 to 5.00 |
| Cc1cc(CN(C)C(=O)c2ccc(-n3cccn3)c(C#Cc3ccccc3)c2)no1 [TT-02801] | 5.30 to 6.00 | 4.70 to 5.00 |
| Cc1noc(CNC(=O)c2ccc(-n3cccn3)c(C#Cc3ccccc3)c2)n1 [TT-02802] | 5.30 to 6.00 | < 4.70 |
| Cn1cnnc1C1CCN(C(=O)c2ccc(-n3cccn3)c(C#Cc3ccccc3)c2)C1 (stereo not shown) [TT-02803] | > 6.00 | < 4.70 |
| O=C(NCCn1cncn1)c1ccc(-n2cccn2)c(C#Cc2ccccc2)c1 [TT-02804] | > 6.00 | < 4.70 |
| Cc1nc(C)n(CCNC(=O)c2ccc(-n3cccn3)c(C#Cc3ccccc3)c2)n1 [TT-02805] | > 6.00 | 5.30 to 6.00 |
| Cc1cc(C)n(CCNC(=O)c2ccc(-n3cccn3)c(C#Cc3ccccc3)c2)n1 [TT-02927] | 5.00 to 5.30 | 4.70 to 5.00 |
| Cn1nnnc1SCCNC(=O)c1ccc(-n2cccn2)c(C#Cc2ccccc2)c1 [TT-02928] | 5.00 to 5.30 | 4.70 to 5.00 |
| O=C(NCCN1CCCC1=O)c1ccc(-n2cccn2)c(C#Cc2ccccc2)c1 [TT-02929] | < 4.70 | < 4.70 |
| CC(CNC(=O)c1ccc(-n2cccn2)c(C#Cc2ccccc2)c1)n1cncn1 (stereo not shown) [TT-02930] | < 4.70 | < 4.70 |
| O=C(NCc1ccco1)c1ccc(-n2cccn2)c(C#Cc2cccnc2)c1 [TT-02931] | 4.70 to 5.00 | < 4.70 |
| CCc1nnc(NC(=O)c2ccc(-n3cccn3)c(C#Cc3cccnc3)c2)s1 [TT-02932] | < 4.70 | < 4.70 |
| CC(CNC(=O)c1ccc(-n2cccn2)c(C#Cc2cccnc2)c1)n1cncn1 (stereo not shown) [TT-02933] | < 4.70 | < 4.70 |
| O=C(NCCCc1ccccn1)c1ccc(-n2cccn2)c(C#Cc2ccccc2)c1 [TT-02935] | 5.00 to 5.30 | 4.70 to 5.00 |
| O=C(NCCCN1CCOCC1)c1ccc(-n2cccn2)c(C#Cc2cccnc2)c1 [TT-02936] | < 4.70 | < 4.70 |
| O=C(NCCCN1CCCC1=O)c1ccc(-n2cccn2)c(C#Cc2cccnc2)c1 [TT-02937] | < 4.70 | < 4.70 |
| O=C(NCCN1C(=O)CSC1=O)c1ccc(-n2cccn2)c(C#Cc2cccnc2)c1 [TT-02938] | < 4.70 | < 4.70 |
| Cn1nnnc1SCCNC(=O)c1ccc(-n2cccn2)c(C#Cc2cccnc2)c1 [TT-02939] | 5.00 to 5.30 | < 4.70 |

| Compound | pIC50 [1] | pIC50 [2] |
| --- | --- | --- |
| Cc1n[nH]c(SCCNC(=O)c2ccc(-n3cccn3)c(C#Cc3cccnc3)c2)n1 [TT-02940] | 4.70 to 5.00 | < 4.70 |
| O=C(NCCCc1ccccn1)c1ccc(-n2cccn2)c(C#Cc2cccnc2)c1 [TT-02941] | 5.00 to 5.30 | 4.70 to 5.00 |
| Cc1nn(-c2ccc(C(=O)NCCc3cnccn3)cc2C#Cc2ccccc2)c(C)c1C [TT-02942] | 5.00 to 5.30 | < 4.70 |
| O=C(NCCc1cnccn1)c1ccc(-n2cccn2)c(C#Cc2ccccc2)c1 [TT-02943] | 5.30 to 6.00 | 4.70 to 5.00 |
| O=C(NCc1cccnc1)c1ccc(-n2cccn2)c(C#Cc2cccnc2)c1 [TT-02944] | 4.70 to 5.00 | < 4.70 |
| Cc1ccnn1CCNC(=O)c1ccc(-n2cccn2)c(C#Cc2cccnc2)c1 [TT-02945] | < 4.70 | < 4.70 |
| CC(C)(C)NC(=O)c1ccc(-n2cccn2)c(C#Cc2ccccn2)c1 [TT-02946] | 5.00 to 5.30 | < 4.70 |
| O=C(NCc1ccco1)c1ccc(-n2cccn2)c(C#Cc2ccccn2)c1 [TT-02947] | > 6.00 | < 4.70 |
| CCc1nnc(NC(=O)c2ccc(-n3cccn3)c(C#Cc3ccccn3)c2)s1 [TT-02948] | < 4.70 | < 4.70 |
| Cc1nn(-c2ccc(C(=O)NCCc3c[nH]cn3)cc2C#Cc2ccccc2)c(C)c1C [TT-02949] | 5.00 to 5.30 | 4.70 to 5.00 |
| O=C(NCCCn1ccnc1)c1ccc(-n2cccn2)cc1 [TT-03071] | 5.30 to 6.00 | 5.30 to 6.00 |
| O=C(NCCCn1ccnc1)c1cccc(Br)c1 [TT-03073] | < 4.70 | < 4.70 |
| Cc1ccc(C(=O)NCCCn2ccnc2)cc1C#Cc1ccccc1 [TT-03196] | > 6.00 | > 6.00 |
| O=C(NCCCc1cn[nH]c1)c1ccc(-n2cccn2)c(C#Cc2cccc(F)c2)c1 [TT-03198] | > 6.00 | > 6.00 |
| Cc1ccc(C#Cc2cc(C(=O)NCCCc3cn[nH]c3)ccc2-n2cccn2)cc1 [TT-03201] | > 6.00 | > 6.00 |
| O=C(NCCCc1cn[nH]c1)c1ccc(-n2cccn2)c(C#Cc2ccccc2F)c1 [TT-03211] | > 6.00 | > 6.00 |
| O=C(NCCCn1ccnc1)c1ccc(-n2cccn2)c(C#Cc2cccc(F)c2)c1 [TT-03217] | > 6.00 | > 6.00 |
| O=C(NCCCn1ccnc1)c1ccc(-n2cccn2)c(C#Cc2ccc(Cl)cc2)c1 [TT-03221] | > 6.00 | > 6.00 |
| O=C(NCCCn1ccnc1)c1ccc(-n2cccn2)c(C#Cc2ccccc2F)c1 [TT-03225] | > 6.00 | > 6.00 |
| O=C(NCCCc1cn[nH]c1)c1ccc(N2CCCC2)c(C#Cc2ccccc2)c1 [TT-03230] | > 6.00 | > 6.00 |
| O=C(NCCCc1cn[nH]c1)c1ccc(N2CCOCC2)c(C#Cc2ccccc2)c1 [TT-03232] | > 6.00 | > 6.00 |
| O=C(NCCCc1cn[nH]c1)c1ccc(Oc2ccccc2)c(C#Cc2ccccc2)c1 [TT-03233] | > 6.00 | > 6.00 |
| O=C(NCCCc1cn[nH]c1)c1ccc(-n2cnnc2)c(C#Cc2ccccc2)c1 [TT-03237] | < 4.70 | < 4.70 |
| CN(C)c1ccc(C(=O)NCCCc2cn[nH]c2)cc1C#Cc1ccccc1 [TT-03242] | > 6.00 | > 6.00 |

| Compound | pIC50 [1] | pIC50 [2] |
| --- | --- | --- |
| O=C(NCCCc1cn[nH]c1)c1ccc(-c2cccnc2)c(C#Cc2ccccc2)c1 [TT-03245] | > 6.00 | > 6.00 |
| O=C(NCCCc1cn[nH]c1)c1ccc(-c2ccncc2)c(C#Cc2ccccc2)c1 [TT-03246] | > 6.00 | > 6.00 |
| Cc1ccc(C(=O)NCCCc2cn[nH]c2)cc1C#Cc1ccccc1 [TT-03248] | > 6.00 | > 6.00 |
| CN(C)c1ccc(C(=O)NCCCn2ccnc2)cc1C#Cc1ccccc1 [TT-03252] | > 6.00 | > 6.00 |
| O=C(NCCCn1ccnc1)c1ccc(-c2ccncc2)c(C#Cc2ccccc2)c1 [TT-03256] | > 6.00 | > 6.00 |
| O=C(NCCCn1ccnc1)c1ccc(N2CCOCC2)c(C#Cc2ccccc2)c1 [TT-03261] | > 6.00 | > 6.00 |
| O=C(NCCCn1ccnc1)c1ccc(-n2cccn2)c(C#Cc2cccnc2)c1 [TT-03264] | > 6.00 | > 6.00 |
| O=C(NCCCc1cn[nH]c1)c1ccc(-n2cccn2)c(C#Cc2cccnc2)c1 [TT-03303] | > 6.00 | > 6.00 |
| O=C(NCCCc1cn[nH]c1)c1ccc(-n2cccn2)c(C#Cc2ccncc2)c1 [TT-03304] | > 6.00 | > 6.00 |
| O=C(NCCCn1ccnc1)c1ccc(-n2cccn2)c(C#Cc2ccncc2)c1 [TT-03305] | > 6.00 | > 6.00 |
| COc1ccc(C#Cc2cc(C(=O)NCCCc3cn[nH]c3)ccc2-n2cccn2)cc1 [TT-03306] | > 6.00 | > 6.00 |
| COc1cccc(C#Cc2cc(C(=O)NCCCc3cn[nH]c3)ccc2-n2cccn2)c1 [TT-03308] | > 6.00 | > 6.00 |
| COc1cccc(C#Cc2cc(C(=O)NCCCn3ccnc3)ccc2-n2cccn2)c1 [TT-03309] | > 6.00 | > 6.00 |
| O=C(NCCCc1cn[nH]c1)c1ccc(-n2cccn2)c(C#Cc2cccc(O)c2)c1 [TT-03311] | > 6.00 | > 6.00 |
| O=C(NCCCn1ccnc1)c1ccc(-n2cccn2)c(C#Cc2cccc(O)c2)c1 [TT-03312] | > 6.00 | > 6.00 |
| O=C(NCCCc1cn[nH]c1)c1ccc(-n2cccn2)c(C#Cc2ccccc2Cl)c1 [TT-03321] | > 6.00 | > 6.00 |
| O=C(NCCCc1cn[nH]c1)c1ccc(-n2cccn2)c(C#Cc2cccc(Cl)c2)c1 [TT-03322] | > 6.00 | > 6.00 |
| O=C(NCCCc1cn[nH]c1)c1ccc(-n2cccn2)c(C#Cc2ccccc2C(F)(F)F)c1 [TT-03323] | > 6.00 | > 6.00 |
| O=C(NCCCc1cn[nH]c1)c1ccc(-n2cccn2)c(C#Cc2ccc(C(F)(F)F)cc2)c1 [TT-03324] | 5.30 to 6.00 | 5.30 to 6.00 |
| Cc1ccccc1C#Cc1cc(C(=O)NCCCc2cn[nH]c2)ccc1-n1cccn1 [TT-03326] | > 6.00 | > 6.00 |
| Cc1cccc(C#Cc2cc(C(=O)NCCCn3ccnc3)ccc2-n2cccn2)c1 [TT-03327] | > 6.00 | > 6.00 |
| Cc1cccc(C#Cc2cc(C(=O)NCCCc3cn[nH]c3)ccc2-n2cccn2)c1 [TT-03328] | > 6.00 | > 6.00 |
| COc1ccccc1C#Cc1cc(C(=O)NCCCc2cn[nH]c2)ccc1-n1cccn1 [TT-03330] | > 6.00 | > 6.00 |
